Read-outs that look alike come from different tables or passages of the source.
Tests used:
Type in all cases: cell-based
NCI-H460 = assay: JFCR-39 cytotoxicity screen
MKN74 = assay: JFCR-39 cytotoxicity screen
ST-4 = assay: JFCR-39 cytotoxicity screen
OVCAR-8 = assay: NCI-60 cytotoxicity screen
TK-10 = assay: NCI-60 cytotoxicity screen
OVCAR-4 = assay: NCI-60 cytotoxicity screen
SR = assay: NCI-60 cytotoxicity screen; conditions: Homo sapiens, Fig 7, read-out: mean log10 of the GI50 values (converted)
HOP-62 = assay: NCI-60 cytotoxicity screen
MKN45 = assay: JFCR-39 cytotoxicity screen
DMS114 = assay: JFCR-39 cytotoxicity screen
DU-145 = assay: JFCR-39 cytotoxicity screen
HCT-116 = assay: JFCR-39 cytotoxicity screen
NCI-H322M = assay: NCI-60 cytotoxicity screen
SK-MEL-2 = assay: NCI-60 cytotoxicity screen
SF-539 = assay: JFCR-39 cytotoxicity screen
ACHN = assay: NCI-60 cytotoxicity screen
NCI-H522 = assay: JFCR-39 cytotoxicity screen
SN12C = assay: NCI-60 cytotoxicity screen
NCI-H226 = assay: JFCR-39 cytotoxicity screen
RXF-631L = assay: JFCR-39 cytotoxicity screen
NCI-H23 = assay: NCI-60 cytotoxicity screen
HBC-4 = assay: JFCR-39 cytotoxicity screen
MCF7 = assay: NCI-60 cytotoxicity screen
UACC-257 = assay: NCI-60 cytotoxicity screen
[1] = tested on: JFCR 39 human cancer cell lines; assay: JFCR-39 screen, means, ranges and selectivity over panels; conditions: for GI50: Homo sapiens
Protocol: Both NSC745885 and NSC757963 satisfied the pre-determined threshold inhibition criteria of the NCI-60 One-Dose Screening, so they were tested against the panels of 60 cancer cell lines of NCI (NCI-60) and 39 cancer cell lines of JFCR (JFCR-39), each cell line was tested at five small doses of our compounds. Results are expressed as the 50% growth inhibition concentration (GI50), the 50% lethal concentration (LC50) and the total growth inhibition (TGI), compared to the values of untreated control cells.
To characterize the selectivity of NSC745885 and NSC757963 further among the different types of cancer, we determined their selectivity ratios towards each cell line subpanel used in the cytotoxicity experiments. […] The promising activity of this compound is evident from the small mean GI50 values. […] The strongest activity was towards the leukemia subpanel and the least one was towards the colon cancer subpanel. […] The strongest activity was towards the melanoma subpanel and the least one was towards the colon cancer subpanel.
All cell lines were published before.

[2] = Homo sapiens, read-out: LC50 (the source's name)
[3] = Homo sapiens, Fig 7, read-out: mean log10 of the GI50 values (converted)
[4] = Homo sapiens, five-dose, read-out: GI50
[5] = Homo sapiens, five-dose, read-out: LC50 (the source's name)
[6] = Homo sapiens, single dose 10 μM, read-out: growth inhibition

Structure (SMILES): O=C1c2ccccc2C(=O)c2c1ccc1nsnc21 [NSC745885, anthra[1,2-c][1,2,5]thiadiazole-6,11-dione]
- TGI (NCI-H460): 13000 nM
- GI50 (NCI-H460; Homo sapiens): 3400 nM
- CC50 (NCI-H460; [2]): 67000 nM
- TGI (MKN74): 4700 nM
- GI50 (MKN74; Homo sapiens, MKN-74): 1800 nM
- CC50 (MKN74; Homo sapiens, MKN-74, read-out: LC50 (the source's name)): > 100000 nM
- TGI (ST-4): 4000 nM
- GI50 (ST-4; Homo sapiens): 2000 nM
- CC50 (ST-4; [2]): 8000 nM
- GI50 (OVCAR-8; [3]): 1200 nM
- GI50 (OVCAR-8; [4]): 1660 nM
- CC50 (OVCAR-8; [5]): 59800 nM
- TGI (OVCAR-8; five-dose): 4680 nM
- GI50 (TK-10; [3]): 10000 nM
- GI50 (TK-10; [4]): 2850 nM
- CC50 (TK-10; [5]): 50400 nM
- TGI (TK-10; five-dose): 10900 nM
- GI50 (OVCAR-4; [3]): 575 nM
- GI50 (OVCAR-4; [4]): 650 nM
- CC50 (OVCAR-4; [5]): 5570 nM
- inhibition at 10 µM (OVCAR-4; [6]): 94.4%
- TGI (OVCAR-4; five-dose): 2170 nM
- GI50 (SR): 6920 nM
- GI50 (HOP-62; [3]): 2140 nM
- GI50 (HOP-62; [4]): 1280 nM
- CC50 (HOP-62; [5]): 8530 nM
- inhibition at 10 µM (HOP-62; [6]): 100%
- TGI (HOP-62; five-dose): 3310 nM
- TGI (MKN45): 9800 nM
- GI50 (MKN45; Homo sapiens, MKN-45): 3100 nM
- CC50 (MKN45; Homo sapiens, MKN-45, read-out: LC50 (the source's name)): 39000 nM
- TGI (DMS114): 1800 nM
- GI50 (DMS114; Homo sapiens, DMS-114): 500 nM
- CC50 (DMS114; Homo sapiens, DMS-114, read-out: LC50 (the source's name)): 5000 nM
- TGI (DU-145): 3500 nM
- GI50 (DU-145; Homo sapiens): 2000 nM
- CC50 (DU-145; [2]): 6100 nM
- TGI (HCT-116): 3000 nM
- GI50 (HCT-116; Homo sapiens): 1600 nM
- CC50 (HCT-116; [2]): 5800 nM
- GI50 (NCI-H322M; [3]): 36300 nM
- GI50 (NCI-H322M; [4]): 17400 nM
- CC50 (NCI-H322M; [5]): > 100000 nM
- TGI (NCI-H322M; five-dose): 47800 nM
- GI50 (SK-MEL-2; [3]): 2000 nM
- GI50 (SK-MEL-2; [4]): 1680 nM
- CC50 (SK-MEL-2; [5]): 22500 nM
- TGI (SK-MEL-2; five-dose): 4220 nM
- TGI (SF-539): 3600 nM
- GI50 (SF-539; Homo sapiens): 1900 nM
- CC50 (SF-539; [2]): 6600 nM
- GI50 (ACHN; [3]): 1580 nM
- GI50 (ACHN; [4]): 1460 nM
- CC50 (ACHN; [5]): 5270 nM
- inhibition at 10 µM (ACHN; [6]): 94.3%
- TGI (ACHN; five-dose): 2770 nM
- TGI (NCI-H522): 3000 nM
- GI50 (NCI-H522; Homo sapiens): 1300 nM
- CC50 (NCI-H522; [2]): 6700 nM
- GI50 (SN12C; [3]): 1780 nM
- GI50 (SN12C; [4]): 1330 nM
- CC50 (SN12C; [5]): 7560 nM
- TGI (SN12C; five-dose): 3170 nM
- TGI (NCI-H226): 3400 nM
- GI50 (NCI-H226; Homo sapiens): 1600 nM
- CC50 (NCI-H226; [2]): 7300 nM
- TGI (RXF-631L): 4900 nM
- GI50 (RXF-631L; Homo sapiens): 2300 nM
- CC50 (RXF-631L; [2]): 12000 nM
- GI50 (NCI-H23; [3]): 1070 nM
- GI50 (NCI-H23; [4]): 1440 nM
- CC50 (NCI-H23; [5]): > 100000 nM
- TGI (NCI-H23; five-dose): 6040 nM
- TGI (HBC-4): 3000 nM
- GI50 (HBC-4; Homo sapiens, HBC4): 1700 nM
- CC50 (HBC-4; Homo sapiens, HBC4, read-out: LC50 (the source's name)): 5500 nM
- GI50 (MCF7; [3]): 1380 nM
- GI50 (MCF7; [4]): 1530 nM
- CC50 (MCF7; [5]): 7290 nM
- TGI (MCF7; five-dose): 3340 nM
- GI50 (UACC-257; [3]): 1620 nM
- GI50 (UACC-257; [4]): 1740 nM
- CC50 (UACC-257; [5]): 7090 nM
- TGI (UACC-257; five-dose): 3510 nM
- selectivity ratios of the JFCR subpanels (for NSC745885 except melanoma) [1]: less than 3
- GI50 ([1]; JFCR Breast Cancer, read-out: Mean GI50 of subpanel): 1660 nM
- GI50 ([1]; JFCR CNS Cancer, read-out: Mean GI50 of subpanel): 1870 nM
- GI50 ([1]; JFCR Colon Cancer, read-out: Mean GI50 of subpanel): 5360 nM
- GI50 ([1]; JFCR Lung Cancer, read-out: Mean GI50 of subpanel): 4130 nM
- GI50 ([1]; JFCR Melanoma, read-out: Mean GI50 of subpanel): 860 nM
- GI50 ([1]; JFCR Ovarian Cancer, read-out: Mean GI50 of subpanel): 1630 nM
- GI50 ([1]; JFCR Prostate Cancer, read-out: Mean GI50 of subpanel): 1650 nM
- GI50 ([1]; JFCR Renal Cancer, read-out: Mean GI50 of subpanel): 2100 nM
- GI50 ([1]; JFCR Stomach Cancer, read-out: Mean GI50 of subpanel): 1710 nM
- GI50 ([1]; all JFCR subpanels, read-out: mean GI50 values of the JFCR subpanels, range): 860 to 5360 nM
- GI50 ([1]; equivalent to MG-MID, read-out: Mean GI50 of all JFCR-39 cell line panels): 2620 nM
- GI50 ([1]; five-dose, read-out: JFCR-39 GI50 values, range over cell lines): 470 to 19000 nM
- Selectivity ratio ([1]; JFCR Breast Cancer): 1.58
- Selectivity ratio ([1]; JFCR CNS Cancer): 1.4
- Selectivity ratio ([1]; JFCR Colon Cancer): 0.49
- Selectivity ratio ([1]; JFCR Lung Cancer): 0.63
- Selectivity ratio ([1]; JFCR Melanoma): 3.04
- Selectivity ratio ([1]; JFCR Ovarian Cancer): 1.6
- Selectivity ratio ([1]; JFCR Prostate Cancer): 1.59
- Selectivity ratio ([1]; JFCR Renal Cancer): 1.25
- Selectivity ratio ([1]; JFCR Stomach Cancer): 1.53

Source: article PMC4839570, “Novel Anthra[1,2-c][1,2,5]Thiadiazole-6,11-Diones as Promising Anticancer Lead Compounds: Biological Evaluation, Characterization & Molecular Targets Determination” (PLoS ONE, 2016)
